Experimental findings from PubChem BioAssay (NCI) are described below.

Among the test systems are A549 NSCLC; SN12C renal; UO-31 renal; KM12 colon; MDA-N; SR leukemia; HCT-116 colon; T-47D breast; OVCAR-5 ovarian; PC-3 prostate; ACHN renal; DU-145 prostate; HOP-92 NSCLC; HL-60(TB) leukemia; RXF 393 renal.
What all share (test): NCI anticancer screen, dose series, 48 h

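Step 1: Grow cells in 96-well plates. Step 2: Expose to compound for 48 hours at 5 concentrations. Step 3: Interpolate endpoints linearly; if unreached, use highest concentration. The concentration for full growth arrest is given as TGI.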 Where a SMILES comes first, the peptide text is derived from it. [ ]: non-standard residue; d: D form. The star is where a group is joined. Phe(4-NO2) = N[CH](Cc1ccc([N+](=O)[O-])cc1)C(=O)O; Cbz = O=C(OCc1ccccc1)* Some results are limits rather than exact numbers.

Regarding `COc1cccc(C2c3cc4c(cc3OC(N3CCCC3)C2c2ccccc2)OCO4)c1O` (stereo not given), the TGI in the assay on A549 NSCLC is 61.4 µM; in the assay with SN12C renal it was 31 µM; in the assay with UO-31 renal it was 20.1 µM; in the assay with KM12 colon, 18.7 µM; in the assay on MDA-N it was 24.6 µM; in the assay on SR leukemia it was 32.7 µM. For the same molecule, the TGI is 17.7 µM in the assay with HCT-116 colon; above 100 µM in the assay with T-47D breast; 75.2 µM in the assay on OVCAR-5 ovarian; 27 µM in the assay with PC-3 prostate; 25.8 µM in the assay with ACHN renal; 90.5 µM with DU-145 prostate.
For `CC(C)(C)c1cc(C(C)(C)C)c(SSc2c(C(C)(C)C)cc(C(C)(C)C)c(O)c2O)c(O)c1O`, the TGI with A549 NSCLC was 24 µM; with SN12C renal, 25.3 µM; in the assay with UO-31 renal, 18.6 µM; in the assay on KM12 colon it was 25.4 µM; with MDA-N, 23.9 µM; in the assay with SR leukemia, 10.4 µM. Besides, the TGI in the assay with HOP-92 NSCLC came out at 31.9 µM; with HL-60(TB) leukemia, 14.6 µM; with HCT-116 colon, 23.2 µM; with T-47D breast it was 27.2 µM; with OVCAR-5 ovarian, 31.3 µM; in the assay on PC-3 prostate, 28.5 µM. For the same molecule, the TGI in the assay with ACHN renal amounted to 26.6 µM; with RXF 393 renal it was 47.2 µM.
As for `CC(C)CC1C(=O)OC(C)(C)OC1=O`, the TGI in the assay with A549 NSCLC, in the assay on SN12C renal, with UO-31 renal, with KM12 colon, in the assay with MDA-N and with HCT-116 colon was above 100 µM each time. Besides, the TGI in the assay with T-47D breast, in the assay on OVCAR-5 ovarian, in the assay with PC-3 prostate, in the assay with ACHN renal, in the assay with RXF 393 renal and in the assay with DU-145 prostate was above 100 µM throughout.
For `O=C1/C(=C/c2ccc([N+](=O)[O-])cc2)Oc2cc(O)ccc21`, the TGI was 92.9 µM in the assay with A549 NSCLC; 87.1 µM in the assay on SN12C renal; 51 µM in the assay on UO-31 renal; above 100 µM in the assay on KM12 colon; 60.2 µM in the assay with MDA-N; 46.1 µM with SR leukemia. The TGI in the assay with HL-60(TB) leukemia is 37.4 µM; with HCT-116 colon, above 100 µM; in the assay on T-47D breast it was above 100 µM; in the assay on PC-3 prostate it was 66.8 µM; in the assay on ACHN renal it was 56.1 µM; with RXF 393 renal it was above 100 µM. This molecule also gave a TGI in the assay on DU-145 prostate above 100 µM.
For `O=C(O)CNc1ncc2c(n1)-c1ccccc1OC2`, the TGI with A549 NSCLC, in the assay on SN12C renal, with UO-31 renal, in the assay on KM12 colon, in the assay on MDA-N and in the assay with SR leukemia was above 100 µM in each case. Moreover, the TGI in the assay with HOP-92 NSCLC, in the assay with HL-60(TB) leukemia, in the assay with HCT-116 colon, in the assay with OVCAR-5 ovarian, in the assay on PC-3 prostate and in the assay on ACHN renal was above 100 µM throughout. Besides, the TGI in the assay on RXF 393 renal and with DU-145 prostate was above 100 µM in each case.
With `CC(=O)/C=C1/C(=O)C(CC(C)C)=C1CC(C)C`, the TGI in the assay on A549 NSCLC, in the assay on SN12C renal, in the assay on UO-31 renal, in the assay with KM12 colon, with MDA-N and in the assay with HOP-92 NSCLC was above 100 µM throughout. The TGI with HL-60(TB) leukemia, with HCT-116 colon, in the assay with T-47D breast, in the assay with OVCAR-5 ovarian, in the assay with PC-3 prostate and in the assay with ACHN renal was above 100 µM in each case. Moreover, the TGI with RXF 393 renal and in the assay with DU-145 prostate was above 100 µM throughout.
Regarding `O=C(O)c1cc(-c2ccc3cc(O)c(O)cc3c2)ccc1O`, the TGI with A549 NSCLC, in the assay on SN12C renal, with UO-31 renal, in the assay with KM12 colon, with MDA-N and with SR leukemia was above 12.5 µM each time. Further, the TGI with HL-60(TB) leukemia, in the assay on HCT-116 colon, in the assay with T-47D breast, in the assay on OVCAR-5 ovarian, in the assay with PC-3 prostate and in the assay with ACHN renal was above 12.5 µM throughout. In the assay on DU-145 prostate, the TGI is above 12.5 µM.
On to `O=[N+]([O-])/C(C(Cl)=C(Cl)Cl)=C(\NCc1ccccc1)Sc1ccccc1`, for which the TGI in the assay on A549 NSCLC is above 100 µM; in the assay with SN12C renal, above 100 µM; with UO-31 renal, 38.3 µM; in the assay with KM12 colon, 36.9 µM; in the assay on MDA-N it was above 100 µM; in the assay on HCT-116 colon, above 100 µM. Further, the TGI was 71.7 µM with T-47D breast; above 100 µM in the assay on OVCAR-5 ovarian; above 100 µM with PC-3 prostate; above 100 µM in the assay with ACHN renal; above 100 µM in the assay on DU-145 prostate.
For `CCOC(=O)CCC(NC(=O)OCc1ccccc1)C(=O)NC(CCC(=O)OCC)C(=O)NC(CCC(=O)OCC)C(=O)NC(CCC(=O)OCC)C(=O)NC(CCC(=O)OCC)C(=O)NC(Cc1ccc([N+](=O)[O-])cc1)C(=O)NC(CCC(=O)OCC)C(=O)NC(CCC(=O)OCC)C(=O)NC(CCC(=O)OCC)C(=O)NC(CCC(=O)OCC)C(=O)NC(CCC(=O)OCC)C(=O)OCC` (stereo not given) (Cbz-E(OEt)E(OEt)E(OEt)E(OEt)E(OEt)[Phe(4-NO2)]E(OEt)E(OEt)E(OEt)E(OEt)E(OEt)-OEt; configuration not given here), the TGI in the assay on A549 NSCLC, in the assay with SN12C renal, with UO-31 renal, with KM12 colon, with MDA-N and in the assay on SR leukemia was above 50 µM throughout. Also, the TGI in the assay with HL-60(TB) leukemia, in the assay on T-47D breast, in the assay on OVCAR-5 ovarian, in the assay with PC-3 prostate, in the assay with ACHN renal and with RXF 393 renal was above 50 µM throughout. Besides, the TGI with DU-145 prostate is above 50 µM.
Regarding `Cc1ccc(C(=O)c2[nH]c(NCc3ccccc3)c(C(=S)Nc3ccccc3)c2N)cc1`, the TGI was 22.1 µM in the assay on A549 NSCLC; 28.8 µM in the assay on SN12C renal; 18.2 µM in the assay on UO-31 renal; 6.34 µM in the assay on KM12 colon; 12.3 µM in the assay with MDA-N; 18.9 µM with HOP-92 NSCLC. In addition, the TGI in the assay on HL-60(TB) leukemia came to 33.5 µM; in the assay with HCT-116 colon, 15.2 µM; with T-47D breast, 33.5 µM; with OVCAR-5 ovarian, 27 µM; in the assay on PC-3 prostate, 26.1 µM; with ACHN renal it was 23.5 µM. Also, the TGI stood at 20.7 µM with RXF 393 renal and 27 µM with DU-145 prostate.
